Source: patent US12338221B2, “Process for preparation of sulfentrazone with tank-mix compatibility” (UPL LTD, priority 2021, dated 2025)

Assay: Tank mix compatibility test with other pesticide active compound
Format: physicochemical
Settings: FIG. 2 and FIG. 3
Method: Samples prepared according to Example 6 and Example 7 were tested for compatibility with clomazone EC formulation (UPSTAGE®). The tank mix compatibility was checked as per the dosages mentioned below: [table] Method: Total 250 ml of spray dilution solution was prepared using above mentioned composition wherein 7 ml of each sample 1 and sample 2 were mixed with 10 ml of UPSTAGE® and mixture was diluted with water.

Compound	Physical incompatibilities when mixed with a clomazone EC formulation
Cc1nn(-c2cc(NS(C)(=O)=O)c(Cl)cc2Cl)c(=O)n1C(F)F [conventionally prepared sulfentrazone, N[2,4-dichloro-5-[4-(difluoromethyl)-4,5-dihydro-3-methyl-5-oxo-1H-1,2,4-triazol-1-yl]phenyl]methanesulfonamide]	moderate to severe physical incompatibilities
Cc1nn(-c2cc(NS(C)(=O)=O)c(Cl)cc2Cl)c(=O)n1C(F)F [sulfentrazone prepared in accordance with the present disclo] [N[2,4-dichloro-5-[4-(difluoromethyl)-4,5-dihydro-3-methyl-5-oxo-1H-1,2,4-triazol-1-yl]phenyl]methanesulfonamide]	did not result in any physical incompatibilities
